Assay results taken from PMC7917842, “Chlortetracycline, a Novel Arf Inhibitor That Decreases the Arf6-Dependent Invasive Properties of Breast Cancer Cells” (Molecules, 2021).

Assays:
Arf1 = biological target: T1, Arf1 (Homo sapiens, UniProt P84077); assay: spontaneous mant-GTP loading on purified myrArf1 with azolectin, […] CTC; also ARNO-catalysed exchange; assay type: biochemical
T1 construct: recombinant myristoylated Arf1 (myrArf1)

Arf6 = biological target: T2, Arf6 (Homo sapiens, UniProt P62330); assay: mant-GTP loading (FRET) on purified Arf6 with EFA6A and azolectin liposomes; also […]GTPγS binding and tryptophan fluorescence; assay type: biochemical
T2 construct: full-length Arf6, C-terminal hexa-his tag (non myristoylated); also myristoylated Arf6; with EFA6A (exchange factor in the IC50 assay)
T2 sequence (Q8NDX1 whole entry): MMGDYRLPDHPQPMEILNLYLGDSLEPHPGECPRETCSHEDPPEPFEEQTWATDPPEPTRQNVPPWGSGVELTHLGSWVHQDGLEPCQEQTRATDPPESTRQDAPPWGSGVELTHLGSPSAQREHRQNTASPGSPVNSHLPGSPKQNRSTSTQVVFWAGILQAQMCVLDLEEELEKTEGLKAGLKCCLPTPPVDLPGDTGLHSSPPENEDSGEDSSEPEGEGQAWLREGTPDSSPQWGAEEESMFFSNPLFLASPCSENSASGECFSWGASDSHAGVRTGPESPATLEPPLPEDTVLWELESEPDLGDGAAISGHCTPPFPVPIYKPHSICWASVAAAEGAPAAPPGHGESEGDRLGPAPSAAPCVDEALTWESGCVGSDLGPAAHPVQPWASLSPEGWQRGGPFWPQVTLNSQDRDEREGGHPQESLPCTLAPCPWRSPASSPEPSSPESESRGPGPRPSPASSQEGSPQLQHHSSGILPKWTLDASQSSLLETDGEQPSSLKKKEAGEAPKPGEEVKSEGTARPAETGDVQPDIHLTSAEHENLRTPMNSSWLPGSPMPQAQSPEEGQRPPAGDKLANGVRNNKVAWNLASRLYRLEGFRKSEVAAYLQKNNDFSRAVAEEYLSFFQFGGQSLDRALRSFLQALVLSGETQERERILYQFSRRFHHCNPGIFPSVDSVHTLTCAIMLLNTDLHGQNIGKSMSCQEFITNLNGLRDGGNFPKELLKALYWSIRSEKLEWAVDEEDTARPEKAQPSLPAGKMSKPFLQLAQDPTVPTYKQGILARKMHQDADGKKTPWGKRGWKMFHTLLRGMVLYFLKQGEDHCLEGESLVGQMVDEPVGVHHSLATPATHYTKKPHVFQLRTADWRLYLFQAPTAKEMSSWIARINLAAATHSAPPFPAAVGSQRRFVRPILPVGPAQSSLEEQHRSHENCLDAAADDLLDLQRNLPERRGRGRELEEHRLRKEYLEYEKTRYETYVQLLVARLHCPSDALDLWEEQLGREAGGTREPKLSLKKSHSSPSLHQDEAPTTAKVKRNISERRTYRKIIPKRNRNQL
T2 sequence (P62330 2-175): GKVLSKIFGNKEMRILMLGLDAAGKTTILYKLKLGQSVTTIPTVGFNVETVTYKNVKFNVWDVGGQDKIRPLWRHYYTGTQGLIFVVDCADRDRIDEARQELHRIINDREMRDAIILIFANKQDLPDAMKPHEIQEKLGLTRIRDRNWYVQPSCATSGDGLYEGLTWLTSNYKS

T1 sequence (P84077 2-181): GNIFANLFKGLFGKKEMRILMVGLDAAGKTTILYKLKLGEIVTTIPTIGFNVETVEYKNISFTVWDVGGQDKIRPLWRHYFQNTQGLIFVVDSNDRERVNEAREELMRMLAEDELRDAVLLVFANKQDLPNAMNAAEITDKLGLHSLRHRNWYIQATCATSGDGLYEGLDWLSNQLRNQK

With `CN(C)[C@@H]1C(O)=C(C(N)=O)C(=O)[C@@]2(O)C(O)=C3C(=O)c4c(O)ccc(Cl)c4[C@@](C)(O)[C@H]3C[C@@H]12` [CTC, chlortetracycline] as the compound, how does the “spontaneous mant-GTP loading on purified myrArf1 with azolectin, 100 μM CTC; als” value (Arf1) read?
The value was “CTC was able to strongly inhibit the spontaneous activation on the myristoylated forms of Arf6 (myrArf6) and Arf1 (myrArf1)”.

And the IC50 (Arf6)?
The IC50 was 75 µM.
